Test results taken from patent US5500429A, “Calcium uptake inhibitors” (Merrell Pharmaceuticals Inc., priority 1993, dated 1996).
Where two headings read alike, the source gives them in different places.

Experiments:
Rat PMNL = assay: Superoxide Anion (SOA) Production by rat PMNL; assay type: cell-based; conditions: for inhibition of superoxide anion production: PMA and OZ induced; for inhibition at 1 µM / inhibition at 3 µM / inhibition at 10 µM / inhibition at 30 µM / inhibition at 100 µM / inhibition at 300 µM: Rattus norvegicus, PMNL
Protocol: Rat PMNL were obtained from exudates resulting from peritoneal injection of 6 mL of 8% sodium caseinate. Eighteen hours after injection rats were killed by carbon dioxide inhalation and the peritoneal cavity lavaged with Hank's balanced salt solution (HBSS). After concentration of the PMNL by centrifugation, contaminating erythrocytes were removed by hypotonic lysis. The PMNL were then washed twice by centrifugation (400×g for 10 minutes) and resuspended in HBSS. Cell viability was greater than 90% by Trypan Blue exclusion and greater than 90% of the cells were PMNL by Wright-Giemsa stain.
Aliquots (50 μl) of a rat PMNL suspension (2×10^7 cells/mL in HBSS) were incubated with 50 μl of HBSS containing vehicle (0.3% DMSO) or compound for 30 minutes at 37° C. as above. One hundred microliters of buffer containing 5.98 mg/mL of cytochrome C (Sigma Type III) and 0.1 mg/mL catalase, plus the compounds where appropriate, were then added to each sample. A blank for spectrophotometric measurement, containing unstimulated cells in the presence of cytochrome C, catalase and SOD, was also prepared. To activate the PMNL, 75 μl of PMA or OZ were added to achieve the final concentration of cell activator (plus vehicle or inhibitor as described above for MPO release) and the cells further incubated at 37° C. for 60 minutes. The activation was terminated by centrifugation at 600×g for 5 minutes at 4° C. Aliquots (200 μl) of supernatant were then transferred to a second, flat-well microtiter plate and measured spectrophotometrically at 550 nm. […]

[1] = system: Lewis rats, adjuvant-induced arthritis; assay: Lewis Rat Adjuvant-Induced Arthritis Model; assay type: in vivo
Protocol: Female inbred Lewis rats (Charles River) weighing 150-200 grams were injected intradermally in the tail with either 0.1 mL of Mycobacterium butyricum (Difco) in mineral oil (5 mg.mL) or with mineral oil alone. Starting on the day of innoculation and for 32 days, paw edema was determined for right and left hind limbs using the mercury displacemnt method. From day 1 some animals were treated with 30 mg/Kg p.o. MDL 29,355 once daily.

[2] = system: Sprague Dawley rats, carrageenin-induced paw edema; assay: Carrageenin Induced Rat Paw Edema; assay type: in vivo; conditions: i.p, one hour prior to carrageenin; read 3 hours after
Protocol: Charles River male Sprague Dawley rats weighing 90 to 100 grams were used. Inflammation of the left hind paw was induced by a 1% carrageenin solution (0.05 cc), injected into the plantar surface of the paw. The contralateral paw was injected with an equal volume of saline. Drugs were administered orally or i.p. (1 cc/100 grams) one hour prior to paw injection. Three hours following the carrageenin injection the difference in volume of the control and inflamed paw was measured. Each paw was immersed in a well of mercury and the volume of mercury displaced was recorded. Paws were uniformly dipped into the mercury up to the beginning of the hairline. A venous pressure transducer, coupled to an oscillographic recorder, was employed to measure the small volumes of mercury displaced. Each group measurement consists of the average of four rats, each with three separate measurements.

[3] = system: Sprague-Dawley rats, Arthus reaction; assay: Arthus Reaction in Rat Skin; assay type: in vivo
Protocol: Anesthetized male Sprague-Dawley rats (Charles River) weighing 200-250 grams received 100 mg/Kg i.v. sterile bovine serum albumin (BSA) solution (5 mg/mL). immediately after injection, the animals received an intradermal injection of 100 ug of rabbit anit-BSA in saline. This produces an immune complex mediated inflammation (Arthus reaction) where immune complexes fix complement releasing factors that attract neutrophils. The neutrophils then are activated causing local tissue damage as manifested in a hemorrhagic spot. The extent of the reaction is reflected in the size of the spot as measured by image analysis techniques.

[4] = PMA, read-out: PMA/SOA inhibition
[5] = opsonized zymosan, read-out: OZ/SOA inhibition

| Structure (SMILES) | inhibition of superoxide anion production (Rat PMNL) | inhibition at 1 µM (Rat PMNL; [4]) [%] | inhibition at 3 µM (Rat PMNL; [4]) [%] | inhibition at 10 µM (Rat PMNL; [4]) [%] | inhibition at 30 µM (Rat PMNL; [4]) [%] | inhibition at 100 µM (Rat PMNL; [4]) [%] | inhibition at 1 µM (Rat PMNL; [5]) [%] | inhibition at 3 µM (Rat PMNL; [5]) [%] | inhibition at 10 µM (Rat PMNL; [5]) [%] | inhibition at 30 µM (Rat PMNL; [5]) [%] | inhibition at 100 µM (Rat PMNL; [5]) [%] | paw swelling reduction, day 20 ([1]; 30 mg/Kg p.o. once daily from day 1, day 20) | paw swelling inhibited, day 32 ([1]; 30 mg/Kg p.o. once daily from day 1, day 32, not significantly different from untreated controls) | animals never displaying adjuvant arthritis ([1]; 30 mg/Kg p.o. once daily, all control animals displayed arthritis) | % Inhibition of carrageenin-induced paw edema [2] [%] | hemorrhagic spot size reduction ([3]; i.p. 100 mg/Kg, 30 minutes before Arthus reaction) | hemorrhagic spot size reduction ([3]; intradermal 100ug with the antibody) | inhibition at 300 µM (Rat PMNL; [4]) [%] | inhibition at 300 µM (Rat PMNL; [5]) [%] |
| --- | --- | --- | --- | --- | --- | --- | --- | --- | --- | --- | --- | --- | --- | --- | --- | --- | --- | --- | --- |
| CN(C)c1ccc(C(=O)C=Cc2ccncc2)cc1 [MDL 101,240, 1-(4-dimethylaminophenyl)-3-(4-pyridinyl)-2-propene-1-one] | inhibited in a dose dependent fashion | -7.2 | 4.7 | 5.9 | 34.5 | 81.5 | -7.8 | 2.5 | 21.3 | 66.3 | 85 |  |  |  |  |  |  |  |  |
| O=C(C=Cc1ccncc1)c1ccccc1 [MDL 29,355, 1-phenyl-3-(4-pyridinyl)-2-propene-1-one] | inhibited in a dose dependent fashion | -29.5 | -30.2 | -20.7 | -12.3 | 21.1 | -10.7 | -12.6 | 2.5 | 27.5 | 67.6 | 36.4% ±16.6% | 30.9%±22.4% | one of the 3 treated animals never displayed adjuvant arthritis | 51.4 ± 8.5 | 55.0%±16.8% | 41.7% ±12.5% | 104 | 102 |
